Patent US20210139966A1, “ENHANCEMENT OF NUCLEIC ACID POLYMERIZATION BY MINOR GROOVE BINDING MOIETIES” (priority 2018, published 2021)
Where a name gives a salt, the structure may show the parent alone. Read-outs that look alike come from different tables or passages of the source.

Tests used:
DNA polymerase [1] = test: Primer extension reaction with XNTPs as substrates (additive screen and MGB titration), gel electrophoresis of Xpandomer products; assay type: biochemical; conditions: for enhancement of XNTP polymerization in titration: FIG. 5, MGB ranging from 75 to 600 μM, highest concentration most robust enhancement; for amount of MGB demonstrating reliable enhancement of XNTP polymerization: further titration experiments, FIG. 6
Excerpt: However, initial transcription of the sequence of the natural DNA template onto the measurable Xpandomer relies on the ability of DNA polymerase to utilize XNTPs as substrates (the generalized structure of an XNTP is discussed herein with reference to FIG. 1A and FIG. 2). […] In an effort to improve the efficiency and accuracy of XNTP polymerization into Xpandomers, a wide variety of additives was screened for the ability to enhance DNA polymerase primer extension reactions using XNTPs as substrates.
A typical primer extension reaction includes the following reagents: 2 pmol primer, 2.2 pmol 45 mer oligonucleotide template, 50 pmol of each XNTP (XATP, XCTP, XGTP, and XTTP), 50 mM Tris HCl, pH 6.79, 200 mM NaCl, 20% PEG, 5% NMS, 0.5 nmol polyphosphate 60.19, 0.3 mM MnCl2, and 0.6 μg of purified recombinant DNA polymerase protein. Reactions are run for 1 hr at 23° C. Reaction products (i.e. constrained Xpandomers) are treated to cleave the phosphoramidate bonds, thereby generating linearized Xpandomers. Reaction products are analyzed using gel electrophoresis on 4-12% acrylamide gels to resolve and visualize Xpandomer products of different lengths. For the additive screen, reaction additives were typically tested in the micro to millimolar range.
Using the primer extension reaction described in Example 1, titration experiments were performed to determine the optimal amount of MGB for enhancement of XNTP polymerization.

DNA polymerase [2] = test: Sequencing by Expansion (SBX) of primer extension products, nanopore reads aligned to a 45 mer template; assay type: biochemical; conditions: FIG. 7B, no additive control not accurate past base 20
Experimental: To investigate the accuracy of enhancement of XNTP polymerization, primer extension products were sequenced using the SBX protocol. Briefly, the constrained Xpandomer products of XNTP polymerization are cleaved to generate linearized Xpandomers. This is accomplished by first quenching the extension reaction with a solution containing 100 mM EDTA, 2 mM THPTA, and 2% Tween-20. Then the sample is subjected to amine modification with a solution of 1 M NaHCO3 and 1 M succinic anhydride in DMF. Cleavage of the phosphoramidate bonds is carried out with 37% HCl and linearized Xpandomers are purified with QIAquick columns (QIAGEN, Inc.).
For sequencing, protein nanopores are prepared by inserting α-hemolysin into a DPhPE/hexadecane bilayer member in buffer B1, containing 2 M NH4Cl and 100 mM HEPES, pH 7.4. The cis well is perfused with buffer B2, containing 0.4 M NH4Cl, 0.6 M GuCl, and 100 mM HEPES, pH 7.4. The Xpandomer sample is heated to 70° C. for 2 minutes, cooled completely, then a 2 μL sample is added to the cis well. A voltage pulse of 90 mV/390 mV/10 μs is then applied and data is acquired via Labview acquisition software.
Sequence data was analyzed by histogram display of the population of sequence reads from a single SBX reaction. […]

[3] = additive screen, primer extension with XNTPs, 1 hr at 23° C., additives typically tested in the micro to millimolar range

## NC(COP(=O)(O)O)C(=O)O (racemic) [O-phospho-DL-serine]
DNA polymerase [1]; [3]
  Extension Effect: Inhibitory

## Nc1cc(C(=O)O)ccc1C(=O)O [2-Aminoterephthalic acid]
DNA polymerase [1]
  Extension Effect: Inhibitory

## Cl.Nc1ccc2cc3ccc(N)cc3nc2c1 [3,6-Diaminoacridine Hydrochloride, reference compound]
DNA polymerase [1]; additive screen
  effect on primer extension with XNTPs (summary of additive screen): significantly and reproducibly enhanced
DNA polymerase [1]; [3]
  Extension Effect: Beneficial

## O=S(=O)([O-])CCC[n+]1ccccc1 [3-(1-pyridinio)-1-propanesulfonate]
DNA polymerase [1]; [3]
  Extension Effect: No effect

## Nc1cc(C(=O)O)cc(C(=O)O)c1 [5-Aminoisophthalic acid]
DNA polymerase [1]; [3]
  Extension Effect: Inhibitory

## CCCCCCCCCCCCCC(=O)NCCC[N+](C)(C)CCCS(=O)(=O)[O-] [ASB-14 (amidosulfobetaine)]
DNA polymerase [1]; [3]
  Extension Effect: No effect

## CC(C)=O [Acetone]
DNA polymerase [1]; [3]
  Extension Effect: Beneficial

## CC#N [Acetonitrile]
DNA polymerase [1]; [3]
  Extension Effect: No effect

## N=C(N)NCCC[C@H](N)C(=O)O [Arginine]
DNA polymerase [1]; [3]
  Extension Effect: Inhibitory

## NCc1ccccc1 [Benzylamine]
DNA polymerase [1]; [3]
  Extension Effect: No effect

## C[N+](C)(C)CC(=O)O [Betaine]
DNA polymerase [1]; [3]
  Extension Effect: Inhibitory

## CCCCCCCc1ccc(C(O)CC[N+](C)(C)CCCS(=O)(=O)[O-])cc1 (stereo not drawn) [C7BzO]
DNA polymerase [1]; [3]
  Extension Effect: No effect

## N=C(N)c1ccc(-c2cc3ccc(C(=N)N)cc3[nH]2)cc1 [DAPI, reference compound]
DNA polymerase [1]; FIG. 4 representative gel
  effect on XNTP polymerization reaction, gel of FIG. 4 (extension product length vs no-additive lane 1, around 14 XNTPs): inhibitory effect
DNA polymerase [1]; [3]
  Extension Effect: No effect

## C[S+](C)[O-] [DMSO]
DNA polymerase [1]; [3]
  Extension Effect: Length increases

## CN(C)C=O [Dimethylformamide]
DNA polymerase [1]; [3]
  Extension Effect: No effect

## CC(=O)NCC(=O)O.CC(=O)NCC(=O)O.N=C(N)c1ccc(N=NNc2ccc(C(=N)N)cc2)cc1 [Diminazine Aceturate, reference compound]
DNA polymerase [1]; [3]
  Extension Effect: No effect

## CCCCCCCCCCCC[N+](C)(C)C.[Cl-] [Dodecyltrimethylammonium chloride]
DNA polymerase [1]; [3]
  Extension Effect: Inhibitory

## C[N+](C)(C)CC(=O)NN.[Cl-] [Girards Reagent T]
DNA polymerase [1]; [3]
  Extension Effect: No effect

## OCC(O)CO [Glycerol]
DNA polymerase [1]; [3]
  Extension Effect: No effect

## CN1CCN(c2ccc3[nH]c(-c4ccc5[nH]c(-c6ccc(O)cc6)nc5c4)nc3c2)CC1 [Hoescht Stain solution 33258, reference compound]
DNA polymerase [1]
  enhancement of XNTP polymerization in titration: dose-dependent enhancement
  amount of MGB demonstrating reliable enhancement of XNTP polymerization: 0.6 mM
DNA polymerase [1]; additive screen
  effect on primer extension with XNTPs (summary of additive screen): significantly and reproducibly enhanced
DNA polymerase [1]; [3]
  Extension Effect: Beneficial
DNA polymerase [2]
  accuracy of sequence reads of SBX sequencing: increased the accuracy of the sequence reads completely to the end of the 45 mer template

## CCOc1ccc(-c2nc3ccc(-c4nc5ccc(N6CCN(C)CC6)cc5[nH]4)cc3[nH]2)cc1 [Hoescht Stain solution 33342, reference compound]
DNA polymerase [1]
  enhancement of XNTP polymerization in titration: dose-dependent enhancement
  amount of MGB demonstrating reliable enhancement of XNTP polymerization: 0.8 mM
DNA polymerase [1]; additive screen
  effect on primer extension with XNTPs (summary of additive screen): significantly and reproducibly enhanced
DNA polymerase [1]; [3]
  Extension Effect: Beneficial

## CN1CCN(c2ccc3nc(-c4ccc5nc(-c6ccc(N(C)C)cc6)[nH]c5c4)[nH]c3c2)CC1 [Hoescht Stain solution 34580, reference compound]
DNA polymerase [1]; additive screen
  effect on primer extension with XNTPs (summary of additive screen): significantly and reproducibly enhanced
DNA polymerase [1]; [3]
  Extension Effect: Beneficial

## c1c[nH]cn1 [Imidazole]
DNA polymerase [1]; [3]
  Extension Effect: No effect

## [Mg+2] [Magnesium]
DNA polymerase [1]; [3]
  Extension Effect: Inhibitory

## CCCCCCCCCCCCN(C)CC(=O)O [N-Lauryl Sarcosine]
DNA polymerase [1]; [3]
  Extension Effect: Inhibitory

## CN1C(=O)CCC1=O [N-methyl succinimide]
DNA polymerase [1]; [3]
  Extension Effect: Beneficial

## [Cl-].[Na+] [NaCl]
DNA polymerase [1]
  Extension Effect: Beneficial

## Cn1cc(NC(=O)c2cc(NC(=O)CN=C(N)N)cn2C)cc1C(=O)NCCC(=N)N [Netropsin dihydrochloride, reference compound]
DNA polymerase [1]
  enhancement of XNTP polymerization in titration: dose-dependent enhancement
DNA polymerase [1]; additive screen
  effect on primer extension with XNTPs (summary of additive screen): significantly and reproducibly enhanced
DNA polymerase [1]; [3]
  Extension Effect: Beneficial

## O=S(=O)([O-])[O-].[Ni+2] [NiSO4]
DNA polymerase [1]; [3]
  Extension Effect: Inhibitory

## C[N+](=O)[O-] [Nitromethane]
DNA polymerase [1]; [3]
  Extension Effect: Inhibitory

## N[C@@H](Cc1ccc(OP(=O)(O)O)cc1)C(=O)O [O-Phospho-L-tyrosine]
DNA polymerase [1]; [3]
  Extension Effect: Inhibitory

## N=C(N)c1ccc(OCCCCCOc2ccc(C(=N)N)cc2)cc1 [Pentamidine isethionate salt, reference compound]
DNA polymerase [1]; [3]
  Extension Effect: No effect

## O=C(/C=C/C=C/c1ccc2c(c1)OCO2)N1CCCCC1 [Piperdine]
DNA polymerase [1]; [3]
  Extension Effect: Inhibitory

## [Cl-].[K+] [Potassium Chloride]
DNA polymerase [1]; [3]
  Extension Effect: No effect

## CC1COC(=O)O1 (stereo not drawn) [Propylene carbonate]
DNA polymerase [1]; [3]
  Extension Effect: Inhibitory

## CCCCCC(=O)[O-].[Na+] [Sodium Hexanoate]
DNA polymerase [1]; [3]
  Extension Effect: No effect

## CCCCCCCCCCCCOS(=O)(=O)[O-].[Na+] [Sodium docecyl sulfate]
DNA polymerase [1]; [3]
  Extension Effect: No effect

## CCCCCCCCCCCCC/C=C/[C@@H](O)[C@@H](N)CO [Sphingosine]
DNA polymerase [1]; [3]
  Extension Effect: No effect

## C[N+](C)(C)C.[Cl-] [TMACl]
DNA polymerase [1]; [3]
  Extension Effect: No effect

## C[N+](C)(C)[O-] [TMAO]
DNA polymerase [1]; [3]
  Extension Effect: Variable effects

## C1CCOC1 [Tetrahydrofuran]
DNA polymerase [1]; [3]
  Extension Effect: No effect

## CC(=O)O.CCN(CC)CC [Triethylamine acetate]
DNA polymerase [1]; [3]
  Extension Effect: Inhibitory

## NC(N)=O [Urea]
DNA polymerase [1]; [3]
  Extension Effect: Beneficial

## CDPI3 [reference compound]
DNA polymerase [1]; [3]
  Extension Effect: Variable effects

## Triton
DNA polymerase [1]; [3]
  Extension Effect: No effect
